Laboratory results: paper PMC10436550, “Subacute toxicity evaluations of LPM3480392 in rats, a full µ-opioid receptor biased agonist” (Frontiers in Pharmacology, 2023)

Experiments:
Sprague Dawley (SD) rats [1] = experiment: Gross necropsy; assay type: in vivo, rat; conditions: end of dosing phase and recovery phase
Protocol: Complete gross necropsies were conducted on all surviving animals at the end of treatment (the day after the last dosing) and recovery periods. The following selected organs were weighed and evaluated in terms of organ/body or organ/brain weight ratios: brain, kidneys, adrenals, testes, ovaries, uterus, epididymides, thymus, spleen, heart and liver. Paired organs were weighed together. Organ-to-body weight ratio = Organ weight(g)/Body weight(g) × 100%, and Organ-to-brain weight ratio = Organ weight(g)/Brain weight(g) × 100%.

Sprague Dawley (SD) rats [2] = experiment: Clinical chemistry, 4-week subacute toxicity study
[3] = female rats, 0.6 mg/kg/day, End of dosing phase
[4] = female rats, 0.6 mg/kg/day, End of recovery phase
[5] = female rats, 1.2 mg/kg/day, End of dosing phase
[6] = female rats, 1.2 mg/kg/day, End of recovery phase
[7] = female rats, 2.4 mg/kg/day, End of dosing phase
[8] = female rats, 2.4 mg/kg/day, End of recovery phase
[9] = male rats, 0.6 mg/kg/day, End of dosing phase
[10] = male rats, 0.6 mg/kg/day, End of recovery phase
[11] = male rats, 1.2 mg/kg/day, End of dosing phase
[12] = male rats, 1.2 mg/kg/day, End of recovery phase
[13] = male rats, 2.4 mg/kg/day, End of dosing phase
[14] = male rats, 2.4 mg/kg/day, End of recovery phase

For `Fc1ccc([C@]2(CCNCc3cccc(Cl)c3)CCO[C@]3(CCOC3)C2)nc1` [LPM3480392], the “Gross necropsy findings in main organs” value (Sprague Dawley (SD) rats [1]) was “no LPM3480392-related abnormalities”, the A/G (Sprague Dawley (SD) rats [2]; [3]) was 3.25 ± 0.35 and the ALB (Sprague Dawley (SD) rats [2]; [3]) was 43.3 ± 2.6 g/L. For the same compound, the ALP (Sprague Dawley (SD) rats [2]; [3]) was 87.4 ± 25.6 U/L, the ALT (Sprague Dawley (SD) rats [2]; [3]) was 24.9 ± 4.2 U/L and the AST (Sprague Dawley (SD) rats [2]; [3]) was 126.9 ± 16.0 U/L. For the same compound, the CREA (Sprague Dawley (SD) rats [2]; [3]) was 27.9 ± 2.4 µmol/L, the GLU (Sprague Dawley (SD) rats [2]; [3]) was 6.20 ± 0.43 mmol/L and the TBIL (Sprague Dawley (SD) rats [2]; [3]) was 1.0 ± 0.5 µmol/L. The TG (Sprague Dawley (SD) rats [2]; [3]) was 0.19 ± 0.05 mmol/L, the TP (Sprague Dawley (SD) rats [2]; [3]) was 56.7 ± 2.2 g/L and the A/G (Sprague Dawley (SD) rats [2]; [4]) was 2.68 ± 0.12. It also gave an ALB (Sprague Dawley (SD) rats [2]; [4]) of 46.4 ± 2.4 g/L, an ALP (Sprague Dawley (SD) rats [2]; [4]) of 60.5 ± 13.8 U/L and an ALT (Sprague Dawley (SD) rats [2]; [4]) of 29.0 ± 6.6 U/L. It also gave an AST (Sprague Dawley (SD) rats [2]; [4]) of 103.0 ± 8.5 U/L, a CREA (Sprague Dawley (SD) rats [2]; [4]) of 36.2 ± 3.7 µmol/L and a GLU (Sprague Dawley (SD) rats [2]; [4]) of 7.01 ± 0.37 mmol/L. For the same compound, the TBIL (Sprague Dawley (SD) rats [2]; [4]) was 1.1 ± 0.5 µmol/L, the TG (Sprague Dawley (SD) rats [2]; [4]) was 0.28 ± 0.08 mmol/L and the TP (Sprague Dawley (SD) rats [2]; [4]) was 63.8 ± 2.6 g/L. It also gave an A/G (Sprague Dawley (SD) rats [2]; [5]) of 2.70 ± 0.42, an ALB (Sprague Dawley (SD) rats [2]; [5]) of 40.1 ± 2.0 g/L and an ALP (Sprague Dawley (SD) rats [2]; [5]) of 95.9 ± 26.3 U/L. It also gave an ALT (Sprague Dawley (SD) rats [2]; [5]) of 28.0 ± 8.0 U/L, an AST (Sprague Dawley (SD) rats [2]; [5]) of 122.5 ± 16.8 U/L and a CREA (Sprague Dawley (SD) rats [2]; [5]) of 29.4 ± 2.4 µmol/L. For the same compound, the GLU (Sprague Dawley (SD) rats [2]; [5]) was 6.44 ± 0.43 mmol/L, the TBIL (Sprague Dawley (SD) rats [2]; [5]) was 0.7 ± 0.2 µmol/L and the TG (Sprague Dawley (SD) rats [2]; [5]) was 0.19 ± 0.03 mmol/L. The TP (Sprague Dawley (SD) rats [2]; [5]) was 55.2 ± 2.1 g/L, the A/G (Sprague Dawley (SD) rats [2]; [6]) was 2.63 ± 0.37 and the ALB (Sprague Dawley (SD) rats [2]; [6]) was 47.0 ± 3.5 g/L. The ALP (Sprague Dawley (SD) rats [2]; [6]) was 51.5 ± 17.8 U/L, the ALT (Sprague Dawley (SD) rats [2]; [6]) was 29.2 ± 2.7 U/L and the AST (Sprague Dawley (SD) rats [2]; [6]) was 95.9 ± 16.3 U/L. The CREA (Sprague Dawley (SD) rats [2]; [6]) was 35.2 ± 1.3 µmol/L, the GLU (Sprague Dawley (SD) rats [2]; [6]) was 6.80 ± 0.80 mmol/L and the TBIL (Sprague Dawley (SD) rats [2]; [6]) was 1.2 ± 0.3 µmol/L. It also gave a TG (Sprague Dawley (SD) rats [2]; [6]) of 0.27 ± 0.03 mmol/L, a TP (Sprague Dawley (SD) rats [2]; [6]) of 65.1 ± 4.0 g/L and an A/G (Sprague Dawley (SD) rats [2]; [7]) of 2.64 ± 0.37. It also gave an ALB (Sprague Dawley (SD) rats [2]; [7]) of 39.9 ± 1.9 g/L, an ALP (Sprague Dawley (SD) rats [2]; [7]) of 124.1 ± 41.1 U/L and an ALT (Sprague Dawley (SD) rats [2]; [7]) of 28.7 ± 4.2 U/L. For the same compound, the AST (Sprague Dawley (SD) rats [2]; [7]) was 132.4 ± 15.4 U/L, the CREA (Sprague Dawley (SD) rats [2]; [7]) was 24.4 ± 1.5 µmol/L and the GLU (Sprague Dawley (SD) rats [2]; [7]) was 6.66 ± 0.45 mmol/L. The TBIL (Sprague Dawley (SD) rats [2]; [7]) was 0.7 ± 0.2 µmol/L, the TG (Sprague Dawley (SD) rats [2]; [7]) was 0.16 ± 0.03 mmol/L and the TP (Sprague Dawley (SD) rats [2]; [7]) was 55.2 ± 1.4 g/L. The A/G (Sprague Dawley (SD) rats [2]; [8]) was 2.55 ± 0.13, the ALB (Sprague Dawley (SD) rats [2]; [8]) was 45.5 ± 2.1 g/L and the ALP (Sprague Dawley (SD) rats [2]; [8]) was 59.2 ± 16.1 U/L. The ALT (Sprague Dawley (SD) rats [2]; [8]) was 34.0 ± 7.0 U/L, the AST (Sprague Dawley (SD) rats [2]; [8]) was 105.9 ± 15.9 U/L and the CREA (Sprague Dawley (SD) rats [2]; [8]) was 32.5 ± 3.1 µmol/L. The GLU (Sprague Dawley (SD) rats [2]; [8]) was 6.61 ± 0.24 mmol/L, the TBIL (Sprague Dawley (SD) rats [2]; [8]) was 0.9 ± 0.6 µmol/L and the TG (Sprague Dawley (SD) rats [2]; [8]) was 0.30 ± 0.06 mmol/L. The TP (Sprague Dawley (SD) rats [2]; [8]) was 63.4 ± 3.3 g/L, the “Increased AST and GLU and decreased CREA, magnitude” value (Sprague Dawley (SD) rats [2]; female rats, all LPM3480392 groups) was less than 18% and the “Decreased ALB, magnitude” value (Sprague Dawley (SD) rats [2]; females, all LPM3480392 groups) was less than 18%. The “Decreased TP, magnitude” value (Sprague Dawley (SD) rats [2]; females, all LPM3480392 groups) was less than 18%, the A/G (Sprague Dawley (SD) rats [2]; [9]) was 3.02 ± 0.34 and the ALB (Sprague Dawley (SD) rats [2]; [9]) was 39.8 ± 2.0 g/L. The GLU (Sprague Dawley (SD) rats [2]; [9]) was 5.90 ± 0.48 mmol/L, the TG (Sprague Dawley (SD) rats [2]; [9]) was 0.21 ± 0.06 mmol/L and the TP (Sprague Dawley (SD) rats [2]; [9]) was 53.0 ± 2.3 g/L. The A/G (Sprague Dawley (SD) rats [2]; [10]) was 2.10 ± 0.18, the ALB (Sprague Dawley (SD) rats [2]; [10]) was 37.4 ± 0.4 g/L and the GLU (Sprague Dawley (SD) rats [2]; [10]) was 7.26 ± 0.55 mmol/L. It also gave a TG (Sprague Dawley (SD) rats [2]; [10]) of 0.26 ± 0.16 mmol/L, a TP (Sprague Dawley (SD) rats [2]; [10]) of 55.2 ± 1.7 g/L and an A/G (Sprague Dawley (SD) rats [2]; [11]) of 3.03 ± 0.37. The ALB (Sprague Dawley (SD) rats [2]; [11]) was 38.4 ± 2.0 g/L, the GLU (Sprague Dawley (SD) rats [2]; [11]) was 6.39 ± 0.32 mmol/L and the TG (Sprague Dawley (SD) rats [2]; [11]) was 0.19 ± 0.05 mmol/L. The TP (Sprague Dawley (SD) rats [2]; [11]) was 51.3 ± 2.3 g/L, the A/G (Sprague Dawley (SD) rats [2]; [12]) was 2.05 ± 0.08 and the ALB (Sprague Dawley (SD) rats [2]; [12]) was 36.6 ± 0.8 g/L. For the same compound, the GLU (Sprague Dawley (SD) rats [2]; [12]) was 6.64 ± 0.99 mmol/L, the TG (Sprague Dawley (SD) rats [2]; [12]) was 0.33 ± 0.12 mmol/L and the TP (Sprague Dawley (SD) rats [2]; [12]) was 54.5 ± 0.6 g/L. For the same compound, the A/G (Sprague Dawley (SD) rats [2]; [13]) was 2.94 ± 0.30, the ALB (Sprague Dawley (SD) rats [2]; [13]) was 38.0 ± 1.6 g/L and the GLU (Sprague Dawley (SD) rats [2]; [13]) was 6.76 ± 0.56 mmol/L. It also gave a TG (Sprague Dawley (SD) rats [2]; [13]) of 0.17 ± 0.05 mmol/L, a TP (Sprague Dawley (SD) rats [2]; [13]) of 51.0 ± 1.4 g/L and an A/G (Sprague Dawley (SD) rats [2]; [14]) of 2.25 ± 0.27. It also gave an ALB (Sprague Dawley (SD) rats [2]; [14]) of 37.7 ± 0.7 g/L, a GLU (Sprague Dawley (SD) rats [2]; [14]) of 6.53 ± 0.83 mmol/L and a TG (Sprague Dawley (SD) rats [2]; [14]) of 0.31 ± 0.12 mmol/L. The TP (Sprague Dawley (SD) rats [2]; [14]) was 54.6 ± 1.7 g/L, the “Decreased ALB, magnitude” value (Sprague Dawley (SD) rats [2]; males, all LPM3480392 groups) was less than 10% and the “Decreased GLU, magnitude” value (Sprague Dawley (SD) rats [2]; males, all LPM3480392 groups) was less than 20%. For the same compound, the “Decreased TG, magnitude” value (Sprague Dawley (SD) rats [2]; males, all LPM3480392 groups) was less than 49% and the “Decreased TP, magnitude” value (Sprague Dawley (SD) rats [2]; males, all LPM3480392 groups) was less than 10%.
